Laboratory results as given in patent US20250019387A1 (Frontier Medicines Corporation, priority 0001, published 2025).

target: KRAS G12C and cRAF (Ras-binding domain) interaction (Homo sapiens (Human), UniProt P01116, C118S/C51S/C80L/G12C); experiment: Inhibition of KRAS G12C and cRAF binding (AlphaScreen); conditions: GMPPNP-loaded KRAS G12C, 19-20 hours incubation with compound; read-out: IC50 (Inhibition of KRAS G12C and cRAF Binding)
Outline: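 IC50 values come from 4-parameter nonlinear regression of AlphaScreen signal (680 nm excitation, 570 nm emission). Compound plates sat 19-20 h at room temperature before RBD and donor/acceptor beads were added in Hepes pH 7.4 buffer with 150 mM NaCl, 5 mM MgCl2, 2% DMSO for 60-90 min; biotin-AviTag-GST replaced RBD to flag assay-technology interferers.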

KRAS G12C and cRAF (Ras-binding domain) interaction, sequence (P01116 other isoform, or with tags, fused parts or gaps G12C/C51S/C80L/C118S): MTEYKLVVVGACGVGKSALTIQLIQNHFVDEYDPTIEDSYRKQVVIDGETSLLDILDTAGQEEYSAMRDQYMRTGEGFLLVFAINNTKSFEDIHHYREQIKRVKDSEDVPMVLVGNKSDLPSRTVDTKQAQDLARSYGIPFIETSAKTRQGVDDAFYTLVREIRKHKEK

Cc1ncc(F)c(/C=C/C(=O)N2CC[C@@H](N(C)c3nc(OCC45CCCN4CCC5)nc4c(F)c(-c5cccc6cccc(Cl)c56)ncc34)C2)n1 [Example 249, (R,E)-1-(3-((7-(8-chloronaphthalen-1-yl)-8-fluoro-2-((tetrahydro-1H-pyrrolizin-7a(5H)-yl)methoxy)pyrido[4,3-d]pyrimidin-4-yl)(methyl)amino)pyrrolidin-1-yl)-3-(5-fluoro-2-methylpyrimidin-4-yl)prop-2-en-1-one] and C=CC(=O)N1CC[C@@H](N(C)c2nc(OC[C@@]34CCCN3C[C@H](O)C4)nc3c(F)c(-c4cccc5cccc(Cl)c45)ncc23)C1 [Example 137, 1-((R)-3-((7-(8-chloronaphthalen-1-yl)-8-fluoro-2-(((2R,7aS)-2-hydroxytetrahydro-1H-pyrrolizin-7a(5H)-yl)methoxy)pyrido[4,3-d]pyrimidin-4-yl)(methyl)amino)pyrrolidin-1-yl)prop-2-en-1-one] fall in the same range of IC50: 0.01 to 0.1 µM for the first, 0.01 to 0.1 µM for the second.

First: C[C@H](F)c1noc(/C=C/C(=O)N2CC(CN(C)c3nc(OC[C@@]45CCCN4C[C@H](F)C5)nc4c(F)c(-c5cccc6cccc(Cl)c56)ncc34)C2)n1 [Example 76, (E)-1-(3-(((7-(8-chloronaphthalen-1-yl)-8-fluoro-2-(((2R,7aS)-2-fluorotetrahydro-1H-pyrrolizin-7a(5H)-yl)methoxy)pyrido[4,3-d]pyrimidin-4-yl)(methyl)amino)methyl)azetidin-1-yl)-3-(3-((S)-1-fluoroethyl)-1,2,4-oxadiazol-5-yl)prop-2-en-1-one]
Second: Cc1nccc(/C=C/C(=O)N2CC(CN(C)c3nc(OC[C@@]45CCCN4C[C@H](F)C5)nc4c3CCN(c3cccc5cccc(Cl)c35)C4)C2)n1 [Example 69, (E)-1-(3-(((7-(8-chloronaphthalen-1-yl)-2-(((2R,7aS)-2-fluorohexahydro-1H-pyrrolizin-7a-yl)methoxy)-5,6,7,8-tetrahydropyrido[3,4-d]pyrimidin-4-yl)(methyl)amino)methyl)azetidin-1-yl)-3-(2-methylpyrimidin-4-yl)prop-2-en-1-one]
The IC50 of the first is lower: under 0.01 µM for the first, 0.1 to 0.5 µM for the second.

First: C=CC(=O)N1CC[C@@H](N(C)c2nc(OC[C@@]34CCCN3C[C@H](F)C4)nc3c(F)c(-c4cccc5cc(F)cc(F)c45)ncc23)C1 [Example 268, 1-((R)-3-((7-(6,8-difluoronaphthalen-1-yl)-8-fluoro-2-(((2R,7aS)-2-fluorohexahydro-1H-pyrrolizin-7a-yl)methoxy)pyrido[4,3-d]pyrimidin-4-yl)(methyl)amino)pyrrolidin-1-yl)prop-2-en-1-one]
Second: CN(c1nc(OCC23CCCN2CCC3)nc2c1CCN(c1cccc3cccc(Cl)c13)C2)[C@@H]1CCN(C(=O)/C=C/c2nc(C(C)(C)C)no2)C1 [Example 149, (R,E)-3-(3-(tert-butyl)-1,2,4-oxadiazol-5-yl)-1-(3-((7-(8-chloronaphthalen-1-yl)-2-((hexahydro-1H-pyrrolizin-7a-yl)methoxy)-5,6,7,8-tetrahydropyrido[3,4-d]pyrimidin-4-yl)(methyl)amino)pyrrolidin-1-yl)prop-2-en-1-one]
The IC50 of the first is higher: 0.1 to 0.5 µM for the first, 0.01 to 0.1 µM for the second. The second is the more potent here.

same assay, conditions: additional exemplary compounds; KRAS G12C and cRAF binding; read-out: RAF1 RBD IC50

First: C=CC(=O)CCCN(C)c1nc(OC[C@@H]2CCCN2C)nc2c1CCN(c1cccc3cccc(Cl)c13)C2
Second: Cc1ncc(/C=C/C(=O)NCCN(C)c2nc(OCC34CCCN3CCC4)nc3c2CCN(c2cccc4cccc(Cl)c24)C3)o1
The IC50 of the first is lower: under 0.01 µM for the first, 0.1 to 0.5 µM for the second. The first is the more potent here.

C=CC(=O)N1C[C@@H](N(C)c2nc(OCC34CCCN3CCC4)nc3c(F)c(-c4cccc5cccc(Cl)c45)ncc23)C[C@@H]1CC#N and C=CC(=O)N1CC(N(C)c2nc(OCC34CCCN3CCC4)nc3c(F)c(-c4cccc5cccc(Cl)c45)ncc23)C1 cannot be ordered by IC50: over 0.5 µM for the first, over 0.5 µM for the second.
